“And” between values parts separate entries of the source, which are not always exact repeats. Equal entries are not always repeated.
Columns and labels:
[1] = system: Pseudomonas aeruginosa (ATCC 15442); assay: High resolution MIC combination test (minimum inhibitory concentration), 96-well microtiter plate, mineral salts medium with 2% glucose
From the text: When the sum of Qa/QA and Qb/QB is greater than one, antagonism is indicated. […] The lower the SI, the greater the synergy shown by that particular mixture. The minimum inhibitory concentration (MIC) of a microbicide is the lowest concentration tested under a specific set of conditions that prevents the growth of added microorganisms.
The tests were set up with 96-well microtiter plate using the Biomek™ 2000 Workstation employing a high resolution MIC/MBC combination test method, which provides multiple combinations of two biocides in one test plate. […] Samples (10 μl) taken from each well of the MIC plate were transferred to fresh media in the MBC plates and observed for the presence of surviving (viable) microorganisms over time. […] The synergistic ratio range of the biocide combination is a reflection of the total activity of both inhibition (MIC) and killing MBC).
Each well received 20 μl of a 24-hour pure culture suspension of Pseudomonas aeruginosa (ATCC 15442) at a final density of 106 colony forming units (CFU) per ml. Cell density was adjusted to an optical density of 0.09 at 660 nm using a spectrophotometer.
Tests were set up in duplicate with different starting concentrations of biocides to increase the number of possible combinations displaying antimicrobial activity.
All biocide results are reported on an active ingredient basis in ppm (parts per million).

[2] = system: Pseudomonas aeruginosa (ATCC 15442); assay: High resolution MBC combination test (minimum biocidal concentration), recovery in Trypticase Soy Broth plus thioglycolate

CC1(C)C(=O)N(Br)C(=O)N1Cl [BCDMH, 3-Bromo-1-chloro-5,5-dimethylhydantoin] showed an A alone ([1]; MIC of BCDMH alone, Day 1, Expt MIC 1) of 3.13 ppm total oxidant, an A alone ([1]; MIC of BCDMH alone, Day 1, Expt MIC 2) of 3.13 ppm total oxidant and an A alone ([1]; MIC of BCDMH alone, Day 3, Expt MIC 1) of 6.25 ppm total oxidant. For the same molecule, the A alone ([1]; MIC of BCDMH alone, Day 3, Expt MIC 2) was 6.25 ppm total oxidant, the A alone ([1]; MIC of BCDMH alone, Day 5, Expt MIC 1) was 6.25 ppm total oxidant and the A alone ([1]; MIC of BCDMH alone, Day 5, Expt MIC 2) was 6.25 ppm total oxidant. It also gave an A alone ([2]; MBC of BCDMH alone, Day 1, Expt MBC 1) of 6.25 ppm total oxidant, an A alone ([2]; MBC of BCDMH alone, Day 1, Expt MBC 2) of 6.25 ppm total oxidant and an A alone ([2]; MBC of BCDMH alone, Day 3, Expt MBC 2) of 6.25 ppm total oxidant.

Work on O=c1[nH]sc2ccccc12 [BIT, 1,2-Benzisothiazolin-3-one] yielded an A alone [1] of 25.00 ppm, an A alone ([1]; BIT alone, ppm active ingredient, day 1, MIC 2) of 50.00 ppm and an A alone ([1]; BIT alone, ppm active ingredient, day 3, MIC 2) of 100.00 ppm. For the same molecule, the a/A ([1]; BIT comb./alone, day 1, MIC 1) was 0.01, the a/A ([1]; BIT comb./alone, day 1, MIC 2) was 0.50 and 0.25 and the a/A ([1]; BIT comb./alone, day 3, MIC 2) was 0.50. For the same molecule, the a comb. ([1]; BIT combined with stabilized hypochlorite and bromide, ppm active ingredient, day 1, MIC 2) was 25.00 ppm and 12.50 ppm, the a comb. ([1]; BIT combined with stabilized hypochlorite and bromide, ppm active ingredient, day 3, MIC 2) was 50.00 ppm and the A alone ([2]; BIT alone, ppm active ingredient, day 1, MBC 2) was 100.00 ppm. It also gave an a/A ([2]; BIT comb./alone, day 1, MBC 2) of 0.50 and an a comb. ([2]; BIT combined with stabilized hypochlorite and bromide, ppm active ingredient, day 1, MBC 2) of 50.00 ppm.

With N#CC(Br)(Br)C(N)=O [DBNPA, 2,2-Dibromo-nitrilo-propionamide] the A alone ([1]; DBNPA alone, ppm active ingredient, day 1, MIC 1) was 6.25 ppm, the A alone ([1]; DBNPA alone, ppm active ingredient, day 1, MIC 2) was 6.25 ppm and the A alone ([1]; DBNPA alone, ppm active ingredient, day 5, MIC 1) was 12.50 ppm and 6.25 ppm. The A alone ([1]; DBNPA alone, ppm active ingredient, day 5, MIC 2) was 12.50 ppm, the a/A ([1]; DBNPA comb./alone, day 5, MIC 1) was 0.32 and 0.50 and the a/A ([1]; DBNPA comb./alone, day 5, MIC 2) was 0.32. The a comb. ([1]; DBNPA combined with stabilized hypochlorite and bromide, ppm active ingredient, day 1, MIC 1) was 1.56 ppm and 0.78 ppm, the a comb. ([1]; DBNPA combined with stabilized hypochlorite and bromide, ppm active ingredient, day 5, MIC 1) was 4.00 ppm and 3.13 ppm and the a comb. ([1]; DBNPA combined with stabilized hypochlorite and bromide, ppm active ingredient, day 5, MIC 2) was 4.00 ppm. It also gave an A alone ([2]; DBNPA alone, ppm active ingredient, day 1, MBC 1) of 12.50 ppm, an a/A ([2]; DBNPA comb./alone, day 1, MBC 1) of 0.50 and an a comb. ([2]; DBNPA combined with stabilized hypochlorite and bromide, ppm active ingredient, day 1, MBC 1) of 6.25 ppm.

In the case of CCCCCCCCn1sc(Cl)c(Cl)c1=O [DCOIT, 4,5-Dichloro-2-n-octyl-4-isothiazolin-3-one], the “A alone (MIC)” value ([1]; Day 1, MIC 1) is reported as 2.50 ppm active ingredient, the “A alone (MIC)” value ([1]; Day 1, MIC 2) is reported as 2.50 ppm active ingredient and the “A alone (MIC)” value ([1]; Day 3, MIC 1) is reported as 5.00 ppm active ingredient and 10.00 ppm active ingredient. The “A alone (MIC)” value ([1]; Day 3, MIC 2) was 10.00 ppm active ingredient and 5.00 ppm active ingredient, the “A alone (MIC)” value ([1]; Day 5, MIC 1) was 5.00 ppm active ingredient and the “A alone (MIC)” value ([1]; Day 5, MIC 2) was 10.00 ppm active ingredient. The “A alone (MBC)” value ([2]; Day 1, MBC 1) was 10.00 ppm active ingredient and the “A alone (MBC)” value ([2]; Day 1, MBC 2) was 10.00 ppm active ingredient.

Work on O=CCCCC=O [GLUT, Pentane-1,5-dial] yielded an A alone ([1]; glutaraldehyde alone, ppm active ingredient, day 1, MIC 1) of 25.00 ppm, an A alone ([1]; glutaraldehyde alone, ppm active ingredient, day 1, MIC 2) of 25.00 ppm and an A alone ([1]; glutaraldehyde alone, ppm active ingredient, day 3, MIC 1) of 25.00 ppm. It also gave an A alone ([1]; glutaraldehyde alone, ppm active ingredient, day 3, MIC 2) of 50.00 ppm, an A alone ([1]; glutaraldehyde alone, ppm active ingredient, day 5, MIC 1) of 25.00 ppm and an A alone ([1]; glutaraldehyde alone, ppm active ingredient, day 5, MIC 2) of 50.00 ppm. It also gave an a/A ([1]; glutaraldehyde comb./alone, day 1, MIC 1) of 0.50, an a/A ([1]; glutaraldehyde comb./alone, day 1, MIC 2) of 0.50 and an a/A ([1]; glutaraldehyde comb./alone, day 3, MIC 1) of 0.50. For the same molecule, the a/A ([1]; glutaraldehyde comb./alone, day 3, MIC 2) was 0.50, the a/A ([1]; glutaraldehyde comb./alone, day 5, MIC 1) was 0.50 and the a/A ([1]; glutaraldehyde comb./alone, day 5, MIC 2) was 0.50. For the same molecule, the a comb. ([1]; glutaraldehyde combined with stabilized hypochlorite and bromide, ppm active ingredient, day 1, MIC 1) was 12.50 ppm, the a comb. ([1]; glutaraldehyde combined with stabilized hypochlorite and bromide, ppm active ingredient, day 1, MIC 2) was 12.50 ppm and the a comb. ([1]; glutaraldehyde combined with stabilized hypochlorite and bromide, ppm active ingredient, day 3, MIC 1) was 12.50 ppm. It also gave an a comb. ([1]; glutaraldehyde combined with stabilized hypochlorite and bromide, ppm active ingredient, day 3, MIC 2) of 25.00 ppm, an a comb. ([1]; glutaraldehyde combined with stabilized hypochlorite and bromide, ppm active ingredient, day 5, MIC 1) of 12.50 ppm and an a comb. ([1]; glutaraldehyde combined with stabilized hypochlorite and bromide, ppm active ingredient, day 5, MIC 2) of 25.00 ppm. The A alone ([2]; glutaraldehyde alone, ppm active ingredient, day 1, MBC 1) was 25.00 ppm, the A alone ([2]; glutaraldehyde alone, ppm active ingredient, day 1, MBC 2) was 25.00 ppm and the A alone ([2]; glutaraldehyde alone, ppm active ingredient, day 3, MBC 2) was 50.00 ppm. The a/A ([2]; glutaraldehyde comb./alone, day 1, MBC 1) was 0.50, the a/A ([2]; glutaraldehyde comb./alone, day 1, MBC 2) was 0.50 and the a/A ([2]; glutaraldehyde comb./alone, day 3, MBC 2) was 0.50. For the same molecule, the a comb. ([2]; glutaraldehyde combined with stabilized hypochlorite and bromide, ppm active ingredient, day 1, MBC 1) was 12.50 ppm, the a comb. ([2]; glutaraldehyde combined with stabilized hypochlorite and bromide, ppm active ingredient, day 1, MBC 2) was 12.50 ppm and the a comb. ([2]; glutaraldehyde combined with stabilized hypochlorite and bromide, ppm active ingredient, day 3, MBC 2) was 25.00 ppm.

With “Alkyl*dimethyl benzyl ammonium chloride [ADBAC]” the “A alone (MIC)” value ([1]; Day 1, MIC 1) was 12.50 ppm active ingredient, the “A alone (MIC)” value ([1]; Day 3, MIC 2) was 50.00 ppm active ingredient and the “A alone (MBC)” value ([2]; Day 3, MBC 1) was 50.00 ppm active ingredient. The “A alone (MBC)” value ([2]; Day 3, MBC 2) was 50.00 ppm active ingredient.
